In article PMC11345766, “Computational Design of Pore-Forming Peptides with Potent Antimicrobial and Anticancer Activities” (Journal of Medicinal Chemistry, 2024):
Values after ≈ are worked out from the molar mass of the structure shown. Blank lines part the entries; values can stand above or below the molecule they belong to.

How the values were obtained:
U251MG = test: cells; assay type: cell-based; settings: Homo sapiens, U-251; Brain; DMEM + 10% FCS; 72 hours
Experimental: (§1) The CellTiter-Glo luminescent cell viability assay examining the impact of peptides on 22 different human cell lines was purchased from Reaction Biology Europe GmbH (Germany). Cells were cultured in different media (Table S1), seeded into a flat-bottom 96-well plate, and incubated at 37 °C. After overnight incubation, test compounds were added with 1% PBS/0.3% Tween 20 and the reference compound bortezomib was added with 0.1% DMSO. Negative controls were solvents alone, and positive control was 10 μM staurosporine. After 72 h of incubation at 37 °C, 5 or 10% CO2 (dependent on the medium), and 1 h equilibration at room temperature, well plates were treated with CellTiter-Glo reagent (Promega) for an hour and luminescence was measured using a luminometer.
(§2) Table S1. In vitro activity against 22 different human cancer cell lines.
(§3) Sr. Cancer Activity (in M)
(§4) no. Cell line type Culture medium
(§5) The effect of investigated compounds on the proliferation of 22 different human cell lines is
(§6) Twenty of these 22 cell lines represent specific cancer types and 2 were non-cancerous. Peptide
(§7) Anticancer drug bortezomib was used as the […]

MOLT-4 = test: cells; assay type: cell-based; settings: Homo sapiens, Leukemia, DMEM + 10% FCS, 72 hours
Experimental: as §1, §2, §3, §4, §5, §6, §7

SK-OV3 = test: cells; assay type: cell-based; settings: Homo sapiens, SK-OV-3; Ovarian; DMEM + 10% FCS; 72 hours
Experimental: as §1, §2, §3, §4, §5, §6, §7

A549 = test: cells; assay type: cell-based; settings: Homo sapiens, Lung, DMEM + 10% FCS, 72 hours
Experimental: as §1, §2, §3, §4, §5, §6, §7

MSC_UC = test: cells; assay type: cell-based; settings: Homo sapiens; Non-cancerous; Promocell MSC-Medium C-28010 + Sup. C39810; 72 hours
Experimental: as §1, §2, §3, §4, §5, §6, §7

HCT116 = test: cells; assay type: cell-based; settings: Homo sapiens, HCT-116; Colorectal; DMEM + 10% FCS; 72 hours
Experimental: as §1, §2, §3, §4, §5, §6, §7

HL-60 = test: cells; assay type: cell-based; settings: Homo sapiens, Leukemia, RPMI-1640 + 10% FCS, 72 hours
Experimental: as §1, §2, §3, §4, §5, §6, §7

A498 = test: cells; assay type: cell-based; settings: Homo sapiens, Kidney, DMEM + 10% FCS, 72 hours
Experimental: as §1, §2, §3, §4, §5, §6, §7

NHDF = test: cells; assay type: cell-based; settings: Homo sapiens; Non-cancerous; Promocell NHDF-Medium C-23010 + Sup. C39315; 72 hours
Experimental: as §1, §2, §3, §4, §5, §6, §7

PC3 = test: cells; assay type: cell-based; settings: Homo sapiens, PC-3; Prostate; DMEM + 10% FCS; 72 hours
Experimental: as §1, §2, §3, §4, §5, §6, §7

MDA MB 231 = test: cells; assay type: cell-based; settings: Homo sapiens, Breast, DMEM + 10% FCS, 72 hours
Experimental: as §1, §2, §3, §4, §5, §6, §7

Caki-1 = test: cells; assay type: cell-based; settings: Homo sapiens, Kidney, DMEM + 10% FCS, 72 hours
Experimental: as §1, §2, §3, §4, §5, §6, §7

H460 = test: cells; assay type: cell-based; settings: Homo sapiens, NCI-H460; Lung; DMEM + 10% FCS; 72 hours
Experimental: as §1, §2, §3, §4, §5, §6, §7

MCF-7 = test: cells; assay type: cell-based; settings: Homo sapiens, MCF7; Breast; DMEM + 10% FCS; 72 hours
Experimental: as §1, §2, §3, §4, §5, §6, §7

SW620 = test: cells; assay type: cell-based; settings: Homo sapiens, SW-620; Colorectal; DMEM + 10% FCS; 72 hours
Experimental: as §1, §2, §3, §4, §5, §6, §7

K562 = test: cells; assay type: cell-based; settings: Homo sapiens, Leukemia, RPMI-1640 + 10% FCS, 72 hours
Experimental: as §1, §2, §3, §4, §5, §6, §7

T-47D = test: cells; assay type: cell-based; settings: Homo sapiens, T47D; Breast; RPMI-1640 +10% FCS + 0,2U/mL Insulin; 72 hours
Experimental: as §1, §2, §3, §4, §5, §6, §7

DU-145 = test: cells; assay type: cell-based; settings: Homo sapiens, Prostate, DMEM + 10% FCS, 72 hours
Experimental: as §1, §2, §3, §4, §5, §6, §7

MDA MB 435 = test: cells; assay type: cell-based, human; settings: Homo sapiens, MDA-MB-435; Melanoma; RPMI-1640 +10% FCS; 72 hours; read-out: Activity (in M), IC50
Experimental: as §1, §2, §3, §4, §5, §6, §7

RPMI 8226 = test: cells; assay type: cell-based, human; settings: Homo sapiens, RPMI-8226; Myeloma; RPMI-1640 +10% FCS; 72 hours; read-out: Activity (in M), IC50
Experimental: as §1, §2, §3, §4, §5, §6, §7

OVCAR-3 = test: cells; assay type: cell-based, human; settings: Homo sapiens, OVCAR-3; Ovarian; RPMI-1640 +10% FCS; 72 hours; read-out: Activity (in M), IC50
Experimental: as §1, §2, §3, §4, §5, §6, §7

HCT-15 = test: cells; assay type: cell-based, human; settings: Homo sapiens, HCT-15; Colorectal; RPMI-1640 +10% FCS; 72 hours; read-out: Activity (in M), IC50
Experimental: as §1, §2, §3, §4, §5, §6, §7

E. coli (TOP10) = test: Broth microdilution antimicrobial susceptibility assay; assay type: cell-based, Escherichia coli; settings: Escherichia coli; 24 h, MHB
Source text: (§8) To test antimicrobial activity, all peptides were initially screened, in a broth microdilution assay, against Gram-negative Escherichia coli (TOP10) and Gram-positive Staphylococcus carnosus (CCM 4838T) Biosafety Level 1 (BSL-1) bacteria (Table 2). […] Four other mutants (LP3, LP26, LP36, and LP39) had higher activity than LP1 against E. coli, and two mutants (LP23 and LP32) had higher activity than LP1 against S. carnosus. Six mutants (LP29, LP30, LP31, LP33, LP40, and LP43) were not active against one or both bacteria, even at the highest concentration tested (50 μM).
(§9) Antimicrobial activity against E. coli TOP10 and S. carnosus CCM 4838T was tested using the broth microdilution assay. Bacteria were cultured in MHA Petri dish for 24 h, subcultured in an MHB test tube for 6 h at 37 °C, and diluted to 10^6 CFU/mL (OD600). […] Dilution series was prepared for concentrations 50 to 0.1 μM in a flat-bottom 96-well plate, inoculated with bacteria, and incubated for 24 h at 37 °C. Growth control wells were free from test compounds, and sterility control wells were free from bacteria. Bacterial MIC was determined as the lowest concentration of test compounds that inhibited visible growth of bacteria (i.e., no visible turbidity).

ESKAPEE pathogens [1] = test: MIC against nine ampicillin-resistant ESKAPEE strains (Figure 3d); assay type: cell-based; settings: 72 h
ESKAPEE pathogens [2] = test: MIC against six reference strains of ESKAPEE pathogens (Figure 3b); assay type: cell-based
Source text: The effect of net charge was further investigated against six reference strains of ESKAPEE pathogens (Figure 3b).

S. carnosus (CCM 4838T) = test: microbe, parasite or virus in culture; assay type: cell-based, Staphylococcus carnosus; settings: Staphylococcus carnosus; 24 h, MHB; read-out: Antimicrobial activity (MIC) S. carnosus (CCM 4838T)
Source text: as §8, §9

ESKAPEE pathogens [3] = test: MIC against five commercially available ESKAPEE strains (Figure 3a); assay type: cell-based
Experimental: First, LP1 and five mutants (LP3, LP8, LP18, LP22, and LP28) were tested against five commercially available ESKAPEE strains (Figure 3a). Promising activity was obtained against Gram-negative Acinetobacter baumannii (GSAB 164), which is resistant to colistin and meropenem, followed by a quality control strain of E. coli (ATCC 25922). Micromolar activity, i.e., MIC of 1 μM, was obtained with both LP1 and LP18.
(Protocol a) Antimicrobial activity test against ESKAPEE strains S. aureus NRS 1, K. pneumoniae ATCC 700603, A. baumannii GSAB 164, P. aeruginosa NCTC 13437, and E. coli ATCC 25922 was purchased from Evotec (UK).

IC50 (U251MG): 19 nM | IC50 (MOLT-4): 4 nM | IC50 (SK-OV3): 19 nM | IC50 (A549): 25 nM | IC50 (HCT116): 6.9 nM | IC50 (HL-60): 4.1 nM | IC50 (A498): 9.1 nM | IC50 (PC3): 16 nM | IC50 (MDA MB 231): 12 nM | IC50 (Caki-1): 12 nM | IC50 (H460): 26 nM | IC50 (MCF-7): 21 nM | IC50 (SW620): 10 nM | IC50 (K562): 9.1 nM | IC50 (T-47D): 8.6 nM | IC50 (DU-145): 16 nM | IC50 (MDA MB 435): 4.3 nM | IC50 (RPMI 8226): 3.2 nM | IC50 (OVCAR-3): 4 nM | IC50 (HCT-15): 9.8 nM
Compound: CC(C)C[C@H](NC(=O)[C@H](Cc1ccccc1)NC(=O)c1cnccn1)B(O)O [Bortezomib]
IC50 (MSC_UC): 4.7 nM | IC50 (NHDF): 14 nM

Compound: CC1(C)S[C@@H]2[C@H](NC(=O)[C@H](N)c3ccccc3)C(=O)N2[C@H]1C(=O)O [Ampicillin]
MIC (E. coli (TOP10)): 12.5 µM (≈ 4.37 µg/mL) | MIC (ESKAPEE pathogens [1]): > 360 µM | MIC (ESKAPEE pathogens [2]): > 92 µM | MIC (S. carnosus (CCM 4838T)): 0.1 µM (≈ 0.0349 µg/mL) | MIC (ESKAPEE pathogens [3]): > 180 µM
